≈ marks a conversion by molar mass, not a printed value.
tested on: HDAC; assay: Inhibition of HDAC activity (fluorometric, HeLa nuclear extract); format: biochemical, human; settings: 30 min room temperature
Description: In order to determine inhibitory activity of a compound in accordance with the present invention on HDAC, evaluation was carried out using an aminocoumarin derivative of ω-acetylated lysine as a substrate for an enzyme. As an enzyme source, a nuclear extract obtained from human cervical cancer cell line HeLa cells was used. The above evaluation was carried out with modification of a method based on the details described in Weegener et al. (2003) Analytical Biochemistry, 321, 203-208. That is, […], […] of nuclear extract and a compound of Example 1 at different concentrations were added and maintained at room temperature for 30 min. Trypsin (10 mg/ml) and Trichostatin A (final concentration: […]) were added to the resulting mixture which was reacted at the same temperature for 20 min, thereby terminating the reaction. The enzyme activity-inhibitory concentration of the compound added was determined using a fluorometer. As a control compound, suberoylanilide hydroxamic acid (SAHA) was used. IC50 in Table 1 below refers to a concentration of the compound that leads to a 50% decrease in activity of HDAC.

Compound | IC50 [µM]
O=C(CCCCCCc1nc(-c2ccccc2)c(-c2ccc(F)cc2)o1)NO [Example 9, 7-[5-(4-fluoro-phenyl)-4-phenyl-oxazol-2-yl]-heptanoic acid hydroxyamide] | 0.00497
COc1ccc(-c2oc(CCCCCCC(=O)NO)nc2-c2ccccc2OC)cc1 [Example 11, 7-[4-(2-methoxy-phenyl)-5-(4-methoxy-phenyl)-oxazol-2-yl]-heptanoic acid hydroxyamide] | 0.00724
O=C(CCCCCCc1nc(-c2ccc(F)cc2)c(-c2cccnc2)o1)NO [Example 15, 7-[4-(4-fluoro-phenyl)-5-pyridin-3-yl-oxazol-2-yl]-heptanoic acid hydroxyamide] | 0.0384
O=C(CCCCCCc1nc(-c2cccc(F)c2)c(-c2cccnc2)o1)NO [Example 16, 7-[4-(3-fluoro-phenyl)-5-pyridin-3-yl-oxazol-2-yl]-heptanoic acid hydroxyamide] | 0.0323
COc1ccc(-c2oc(CCCCCCC(=O)NO)nc2-c2ccncc2)cc1 [Example 18, 7-[5-(4-methoxy-phenyl)-4-pyridin-4-yl-oxazol-2-yl)-heptanoic acid hydroxyamide] | 0.014
O=C(CCCCCCc1nc(-c2ccccc2)c(-c2ccc(O)cc2)o1)NO [Example 20, 7-[5-(4-hydroxy-phenyl)-4-phenyl-oxazol-2-yl]-heptanoic acid hydroxyamide] | 0.0017

tested on: HeLa; assay: In vitro toxicity / growth inhibition (CellTiter-Glo), HeLa; format: cell-based; settings: Homo sapiens, 48 hr
Description: (§1) In order to determine in vitro toxicity of a compound in accordance with the present invention, 18 species of human cancer cell lines (HeLa, cervical cancer cell line; HCT116, SW480, SW620, RKO, colon cancer cell lines; H460, H1299, A549, lung cancer cell lines; MCF7, MDA-MB231, MDA-MB453, breast cancer cell lines; Jurkat, K562, THP1, Ramos, U937, blood cancer cell lines; PC3, DU145, prostate cancer cell lines) were used. Cell lines were cultured in RPMI 1640 culture medium containing penicillin/streptomycin (100 units/mL) and heat-inactivated 5% fetal bovine serum (FBS) under standard culture conditions ([…], 5% CO2, and 100% relative humidity). Thereafter, single cell suspension was obtained via trypsin treatment and pipetting. The suspension was diluted with the same medium such that a cell density is in a range of 8×10^3 to 1.5×10^4 cells/well, and was transferred to a 96-well microtiter plate. After culturing for 24 hours, cell cultures were treated with respective compounds of Examples at various concentrations. […] The above evaluation was carried out according to the methods given in a manufacture's manual. GI50 in Table 1 below refers to a concentration that compounds of Examples cause 50% growth inhibition of various cancer cells.

Compound | GI50 [µM]
O=C(CCCCCCc1nc(-c2ccccc2)c(-c2ccc(F)cc2)o1)NO [Example 9, 7-[5-(4-fluoro-phenyl)-4-phenyl-oxazol-2-yl]-heptanoic acid hydroxyamide] | 14.2
COc1ccc(-c2oc(CCCCCCC(=O)NO)nc2-c2ccccc2OC)cc1 [Example 11, 7-[4-(2-methoxy-phenyl)-5-(4-methoxy-phenyl)-oxazol-2-yl]-heptanoic acid hydroxyamide] | 1.2
O=C(CCCCCCc1nc(-c2ccc(F)cc2)c(-c2cccnc2)o1)NO [Example 15, 7-[4-(4-fluoro-phenyl)-5-pyridin-3-yl-oxazol-2-yl]-heptanoic acid hydroxyamide] | 30.1
O=C(CCCCCCc1nc(-c2cccc(F)c2)c(-c2cccnc2)o1)NO [Example 16, 7-[4-(3-fluoro-phenyl)-5-pyridin-3-yl-oxazol-2-yl]-heptanoic acid hydroxyamide] | 20.7
COc1ccc(-c2oc(CCCCCCC(=O)NO)nc2-c2ccncc2)cc1 [Example 18, 7-[5-(4-methoxy-phenyl)-4-pyridin-4-yl-oxazol-2-yl)-heptanoic acid hydroxyamide] | 9.1
O=C(CCCCCCc1nc(-c2ccccc2)c(-c2ccc(O)cc2)o1)NO [Example 20, 7-[5-(4-hydroxy-phenyl)-4-phenyl-oxazol-2-yl]-heptanoic acid hydroxyamide] | 2.4

tested on: HCT116; assay: In vitro toxicity / growth inhibition (CellTiter-Glo), HCT116; format: cell-based; settings: Homo sapiens, HCT-116; HCT116, 48 hr
Description: as §1

Compound | GI50 [µM]
O=C(CCCCCCc1nc(-c2ccccc2)c(-c2ccc(F)cc2)o1)NO [Example 9, 7-[5-(4-fluoro-phenyl)-4-phenyl-oxazol-2-yl]-heptanoic acid hydroxyamide] | 5.9
COc1ccc(-c2oc(CCCCCCC(=O)NO)nc2-c2ccccc2OC)cc1 [Example 11, 7-[4-(2-methoxy-phenyl)-5-(4-methoxy-phenyl)-oxazol-2-yl]-heptanoic acid hydroxyamide] | 2.4
COc1ccc(-c2oc(CCCCCCC(=O)NO)nc2-c2ccncc2)cc1 [Example 18, 7-[5-(4-methoxy-phenyl)-4-pyridin-4-yl-oxazol-2-yl)-heptanoic acid hydroxyamide] | 3.8
O=C(CCCCCCc1nc(-c2ccccc2)c(-c2ccc(O)cc2)o1)NO [Example 20, 7-[5-(4-hydroxy-phenyl)-4-phenyl-oxazol-2-yl]-heptanoic acid hydroxyamide] | 1.5

tested on: H460; assay: In vitro toxicity / growth inhibition (CellTiter-Glo), H460; format: cell-based; settings: Homo sapiens, NCI-H460; H460, 48 hr
Description: as §1

Compound | GI50 [µM]
O=C(CCCCCCc1nc(-c2ccccc2)c(-c2ccc(F)cc2)o1)NO [Example 9, 7-[5-(4-fluoro-phenyl)-4-phenyl-oxazol-2-yl]-heptanoic acid hydroxyamide] | 19.1
COc1ccc(-c2oc(CCCCCCC(=O)NO)nc2-c2ccccc2OC)cc1 [Example 11, 7-[4-(2-methoxy-phenyl)-5-(4-methoxy-phenyl)-oxazol-2-yl]-heptanoic acid hydroxyamide] | 10.2
O=C(CCCCCCc1nc(-c2ccc(F)cc2)c(-c2cccnc2)o1)NO [Example 15, 7-[4-(4-fluoro-phenyl)-5-pyridin-3-yl-oxazol-2-yl]-heptanoic acid hydroxyamide] | 69
O=C(CCCCCCc1nc(-c2cccc(F)c2)c(-c2cccnc2)o1)NO [Example 16, 7-[4-(3-fluoro-phenyl)-5-pyridin-3-yl-oxazol-2-yl]-heptanoic acid hydroxyamide] | 52.3
COc1ccc(-c2oc(CCCCCCC(=O)NO)nc2-c2ccncc2)cc1 [Example 18, 7-[5-(4-methoxy-phenyl)-4-pyridin-4-yl-oxazol-2-yl)-heptanoic acid hydroxyamide] | 11.7
O=C(CCCCCCc1nc(-c2ccccc2)c(-c2ccc(O)cc2)o1)NO [Example 20, 7-[5-(4-hydroxy-phenyl)-4-phenyl-oxazol-2-yl]-heptanoic acid hydroxyamide] | 5.4

tested on: not listed separately; assay: Solubility; format: physicochemical; settings: not given

Compound | solubility [µg/mL]
COc1ccc(-c2oc(CCCCCCC(=O)NO)nc2-c2ccccc2OC)cc1 [Example 11, 7-[4-(2-methoxy-phenyl)-5-(4-methoxy-phenyl)-oxazol-2-yl]-heptanoic acid hydroxyamide] | 400 (≈ 942 µM)
O=C(CCCCCCc1nc(-c2ccc(F)cc2)c(-c2cccnc2)o1)NO [Example 15, 7-[4-(4-fluoro-phenyl)-5-pyridin-3-yl-oxazol-2-yl]-heptanoic acid hydroxyamide] | 2000 (≈ 5220 µM)
O=C(CCCCCCc1nc(-c2cccc(F)c2)c(-c2cccnc2)o1)NO [Example 16, 7-[4-(3-fluoro-phenyl)-5-pyridin-3-yl-oxazol-2-yl]-heptanoic acid hydroxyamide] | 1400 (≈ 3650 µM)
COc1ccc(-c2oc(CCCCCCC(=O)NO)nc2-c2ccncc2)cc1 [Example 18, 7-[5-(4-methoxy-phenyl)-4-pyridin-4-yl-oxazol-2-yl)-heptanoic acid hydroxyamide] | 900 (≈ 2280 µM)
O=C(CCCCCCc1nc(-c2ccccc2)c(-c2ccc(O)cc2)o1)NO [Example 20, 7-[5-(4-hydroxy-phenyl)-4-phenyl-oxazol-2-yl]-heptanoic acid hydroxyamide] | 300 (≈ 789 µM)

tested on: Raw cell; assay: Inhibition of LPS-induced NO increases; format: cell-based, Mouse; settings: 5 μM compound, LPS, 18 hours, Griess Reagent
Description: As one of the methods to confirm anti-inflammatory responses, inhibition of increases in nitric oxide (NO) due to lipopolysaccharide (LPS) was carried out. Mouse cell line (Raw cell) was cultured in RPMI 1640 culture medium containing penicillin/streptomycin (100 units/mL) and heat-inactivated 5% fetal bovine serum (FBS) under standard culture conditions ([…], 5% CO2, 37° C., and 100% relative humidity). Test compounds were dissolved in dimethylsulfoxide (DMSO) and were used as a final concentration of 1 to 40 μM. Cells were proliferated to a cell density of 5×10^3 to 2×10^4 cells on a 24-well plate and were treated with the respective compounds (equal amounts of 5 μM) 1 hour prior to treatment with LPS ([…]). The thus-treated cells were cultured for 18 hours, and thereafter the amounts of NO thus produced were measured using Griess Reagent. Measurement was confirmed using an absorption spectrophotometer at 540 nm. The value was expressed as percentage (%) relative to a control in which LPS alone was treated.

Compound | NO [μM/L]
O=C(CCCCCCc1nc(-c2ccccc2)c(-c2ccc(F)cc2)o1)NO [Example 9, 7-[5-(4-fluoro-phenyl)-4-phenyl-oxazol-2-yl]-heptanoic acid hydroxyamide] | 71.4
COc1ccc(-c2oc(CCCCCCC(=O)NO)nc2-c2ccccc2OC)cc1 [Example 11, 7-[4-(2-methoxy-phenyl)-5-(4-methoxy-phenyl)-oxazol-2-yl]-heptanoic acid hydroxyamide] | 65.0
O=C(CCCCCCc1nc(-c2ccc(F)cc2)c(-c2cccnc2)o1)NO [Example 15, 7-[4-(4-fluoro-phenyl)-5-pyridin-3-yl-oxazol-2-yl]-heptanoic acid hydroxyamide] | 66.6
O=C(CCCCCCc1nc(-c2cccc(F)c2)c(-c2cccnc2)o1)NO [Example 16, 7-[4-(3-fluoro-phenyl)-5-pyridin-3-yl-oxazol-2-yl]-heptanoic acid hydroxyamide] | 63.0
COc1ccc(-c2oc(CCCCCCC(=O)NO)nc2-c2ccncc2)cc1 [Example 18, 7-[5-(4-methoxy-phenyl)-4-pyridin-4-yl-oxazol-2-yl)-heptanoic acid hydroxyamide] | 68.6
O=C(CCCCCCc1nc(-c2ccccc2)c(-c2ccc(O)cc2)o1)NO [Example 20, 7-[5-(4-hydroxy-phenyl)-4-phenyl-oxazol-2-yl]-heptanoic acid hydroxyamide] | 55.9

same assay, conditions: Mus musculus, 18 h; 5 μM compound, relative to LPS alone control

Compound | activity at 5 µM [%]
O=C(CCCCCCc1nc(-c2ccccc2)c(-c2ccc(F)cc2)o1)NO [Example 9, 7-[5-(4-fluoro-phenyl)-4-phenyl-oxazol-2-yl]-heptanoic acid hydroxyamide] | 79.4
COc1ccc(-c2oc(CCCCCCC(=O)NO)nc2-c2ccccc2OC)cc1 [Example 11, 7-[4-(2-methoxy-phenyl)-5-(4-methoxy-phenyl)-oxazol-2-yl]-heptanoic acid hydroxyamide] | 61.3
O=C(CCCCCCc1nc(-c2ccc(F)cc2)c(-c2cccnc2)o1)NO [Example 15, 7-[4-(4-fluoro-phenyl)-5-pyridin-3-yl-oxazol-2-yl]-heptanoic acid hydroxyamide] | 65.8
O=C(CCCCCCc1nc(-c2cccc(F)c2)c(-c2cccnc2)o1)NO [Example 16, 7-[4-(3-fluoro-phenyl)-5-pyridin-3-yl-oxazol-2-yl]-heptanoic acid hydroxyamide] | 55.7
COc1ccc(-c2oc(CCCCCCC(=O)NO)nc2-c2ccncc2)cc1 [Example 18, 7-[5-(4-methoxy-phenyl)-4-pyridin-4-yl-oxazol-2-yl)-heptanoic acid hydroxyamide] | 71.6
O=C(CCCCCCc1nc(-c2ccccc2)c(-c2ccc(O)cc2)o1)NO [Example 20, 7-[5-(4-hydroxy-phenyl)-4-phenyl-oxazol-2-yl]-heptanoic acid hydroxyamide] | 35.9
